Measured values as given in ChEMBL document CHEMBL4304775, “Identification and characterization of a novel chemotype for human TLR8 inhibitors” (Eur J Med Chem, 2019).

Legend:
[1] = Cytotoxicity against human HEK-Blue cells transfected with hTLR8 assessed as reduction in cell viability at 50 uM after 24 hrs by MTT assay; assay type: cell-based
[2] = molecular target: T1, Toll-like receptor 8 (Homo sapiens) (UniProt Q9NR97); assay: Antagonist activity at human TLR8 expressed in HEK-Blue cells assessed as inhibition of CL075-induced NF-kappaB activation incubated for 1 hr followed by CL075-stimulation and measured after 24 hrs by quanti-blue SEAP assay; assay type: cell-based
T1 sequence (whole entry): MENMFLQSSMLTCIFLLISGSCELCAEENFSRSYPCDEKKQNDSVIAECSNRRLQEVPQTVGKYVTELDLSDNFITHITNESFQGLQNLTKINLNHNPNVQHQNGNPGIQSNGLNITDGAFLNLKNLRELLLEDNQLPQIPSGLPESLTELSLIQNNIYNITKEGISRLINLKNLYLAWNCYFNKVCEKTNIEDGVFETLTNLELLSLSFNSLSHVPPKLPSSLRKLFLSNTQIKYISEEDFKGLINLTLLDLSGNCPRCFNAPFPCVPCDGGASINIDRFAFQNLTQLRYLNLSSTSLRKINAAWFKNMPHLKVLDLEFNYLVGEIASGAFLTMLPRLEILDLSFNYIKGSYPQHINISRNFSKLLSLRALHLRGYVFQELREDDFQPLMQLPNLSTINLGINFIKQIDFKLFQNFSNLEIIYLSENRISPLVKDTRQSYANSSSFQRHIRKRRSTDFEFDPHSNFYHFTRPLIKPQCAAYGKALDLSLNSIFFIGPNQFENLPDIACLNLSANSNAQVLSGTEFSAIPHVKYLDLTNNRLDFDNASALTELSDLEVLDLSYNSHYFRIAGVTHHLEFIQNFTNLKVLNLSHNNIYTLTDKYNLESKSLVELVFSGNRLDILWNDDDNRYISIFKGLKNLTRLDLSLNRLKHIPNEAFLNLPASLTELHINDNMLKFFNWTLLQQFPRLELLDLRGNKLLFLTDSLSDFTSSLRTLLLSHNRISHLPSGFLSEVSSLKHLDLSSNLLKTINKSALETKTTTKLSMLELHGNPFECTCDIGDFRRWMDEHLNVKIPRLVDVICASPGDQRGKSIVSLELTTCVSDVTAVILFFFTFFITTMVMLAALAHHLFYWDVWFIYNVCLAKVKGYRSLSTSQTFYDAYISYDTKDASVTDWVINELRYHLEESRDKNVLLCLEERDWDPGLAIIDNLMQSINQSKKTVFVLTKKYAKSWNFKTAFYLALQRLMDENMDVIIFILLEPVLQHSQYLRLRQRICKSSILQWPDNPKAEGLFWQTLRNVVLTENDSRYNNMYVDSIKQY

- inhibition [2]: Dose-dependent effect
Compound: FC(F)(F)c1cc(-c2ccco2)nc(NCc2cccs2)n1
- Activity [1]: Toxic
